The values below come from US20140038205A1, “METHODS AND COMPOSITIONS RELATING TO COAGULATION ASSAYS” (Precision BioLogic Inc., priority 2011, published 2014).

The conditions of experiment [1]: relative to heparin; cited from earlier work.
The next experiment addresses T1, PF4 (Homo sapiens, UniProt P02776).
T1 sequence (P02776 32-101): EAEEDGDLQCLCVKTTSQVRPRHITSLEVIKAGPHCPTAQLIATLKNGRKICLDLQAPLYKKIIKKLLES
To be noted: rank: heparin>heparan sulfate>dermatan sulfate>chondroitin-6-sulfate>chondroitin-4-sulfate; cited from earlier work.

Experiment [2] deals with unfractionated heparin (UFH). Briefly: aPTT assay, neutralization of heparin in heparinized plasma. The conditions noted are these: plasma containing up to 2 U/mL of UFH; FIG. 1 and FIG. 4. The experiment is classed as biochemical. An excerpt:
PF4 tetramers form a cylindrical structure displaying an equatorial ring of positively charged amino acids around which the polyanionic heparin molecules wrap and bind with exceptionally high affinity. The formation of a PF4-heparin complex strongly impairs the capacity of heparin to bind AT and stimulate its anticoagulant activity.
(§1) In the aPTT (also referred to as “partial thromboplastin time” or “PTT”) assay, the sample is then mixed with a phospholipid, an activator such as silica, celite, kaolin or ellagic acid, and calcium. The contact activator is used to stimulate production of Factor XIIa. The phospholipids form complexes that activate Factor X and prothrombin. Calcium is used to reverse the anticoagulant effects of the oxalate or citrate. The mixture is then allowed to form a thrombus (clot) and the time to do so is measured. An abnormal or prolonged aPTT time will vary depending on the population and local normal ranges should be known. However, as a general guideline, values over 39 seconds may be considered abnormal and prolonged according to the invention, and such samples may be candidates for further analysis using the methods of the invention.
The PF4-based reagent may be used for the in vitro neutralization of heparin in samples as assessed by the aPTT assay. […]

Another experiment deals with non-heparinized plasma. Briefly: aPTT assay of non-heparinized plasma. Format: biochemical. To be noted: FIG. 2 and FIG. 3.
Excerpt: as §1
The PF4-based reagent may be used for the in vitro neutralization of heparin in samples as assessed by the aPTT assay. To ensure an accurate aPTT result the reagent must act specifically to reverse only anticoagulant activity associated with heparin, and otherwise have no effect on the plasma clotting time. […] This phenomenon might be due to PF4-induced stimulation of the thrombin-mediated cleavage of protein C to generate the potent anticoagulant activated protein C (APC). APC acts to inactivate coagulation Factors Va and VIIIa by proteolysis. […]

chondroitin-4-sulfate: the anti-coagulant potency entry in experiment [1] is “much lower than that of heparin”. Moreover, the “relative binding affinity for PF4” value at PF4 is recorded as “low relative affinity for PF4”.
With platelet factor 4 [PF4], the “neutralization of heparin anticoagulant activity (aPTT)” value in experiment [2] is “fully corrected to baseline”. Further, the “effect on the aPTT of non-heparinized plasma” value in the experiment with non-heparinized plasma is “gradual prolongation of the aPTT”.
